How the values were obtained:
bamyardgrass = experiment: Test B flood test barnyardgrass; type: in vivo, Echinochloa crus-galli
Method in brief: (§1)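 Plants were grown to the 2-leaf stage before treatment with test chemical, then held in a greenhouse for twelve to sixteen days. Injury was visually rated against untreated controls on a 0–10 scale, where 0 is no effect and 10 is complete control.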

morningglory = experiment: Test B pre/postemergence morningglory; type: in vivo, Ipomoea hederacea
Method in brief: (§2)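 Test chemicals in a non-phytotoxic solvent mixture with surfactant were sprayed preemergence onto planted seeds and postemergence onto plants 2 to 18 cm tall (1- to 4-leaf stage). After twelve to sixteen days in a greenhouse, injury was visually rated against untreated controls from 0 (no effect) to 10 (complete control).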

wheat = experiment: Test B pre/postemergence wheat; type: in vivo, Triticum aestivum
Method in brief: as §2

rice = experiment: Test B flood test rice; type: in vivo, Oryza sativa
Method in brief: as §1

velvetleaf = experiment: Test B pre/postemergence velvetleaf; type: in vivo, Abutilon theophrasti
Method in brief: as §2

soybean = experiment: Test B pre/postemergence soybean; type: in vivo, Glycine max
Method in brief: as §2

smallflower flatsedge = experiment: Test B flood test smallflower flatsedge; type: in vivo, Cyperus difformis
Method in brief: as §1

pigweed = experiment: Test B pre/postemergence pigweed; type: in vivo, Amaranthus retroflexus
Method in brief: as §2

cocklebur = experiment: Test B pre/postemergence cocklebur; type: in vivo, Xanthium strumarium
Method in brief: as §2

surinam grass = experiment: Test B pre/postemergence surinam grass; type: in vivo, Brachiaria decumbens
Method in brief: as §2

purple nutsedge = experiment: Test B pre/postemergence purple nutsedge; type: in vivo, Cyperus rotundus
Method in brief: as §2

crabgrass = experiment: Test B pre/postemergence crabgrass; type: in vivo, Digitaria sanguinalis
Method in brief: as §2

giant foxtail = experiment: Test B pre/postemergence giant foxtail; type: in vivo, Setaria faberii
Method in brief: as §2

blackgrass = experiment: Test B pre/postemergence blackgrass; type: in vivo, Alopecurus myosuroides
Method in brief: as §2

wild oat = experiment: Test B pre/postemergence wild oat; type: in vivo, Avena fatua
Method in brief: as §2

[1] = Postemergence block (flood test species), Rate 250 g/ha, scale 0 to 10
[2] = Postemergence section (flood test species), Rate 500 g/ha, scale of 0 to 10 where 0 is no effect and 10 is complete control
[3] = Rate 125 g/ha, Postemergence section (flood test species), scale 0 to 10, 0 is no effect, 10 is complete control
[4] = Postemergence, Rate 250 g/ha, scale 0 to 10
[5] = Postemergence, Rate 500 g/ha, scale of 0 to 10 where 0 is no effect and 10 is complete control
[6] = Preemergence, Rate 62 g/ha, scale 0 to 10 (0 no effect, 10 complete control)
[7] = Preemergence, Rate 125 g/ha, scale of 0 to 10 where 0 is no effect and 10 is complete control
[8] = Preemergence, Rate 250 g/ha, scale 0 to 10, 0 is no effect, 10 is complete control
[9] = Preemergence, Rate 500 g/ha, scale 0 to 10, 0 is no effect, 10 is complete control
[10] = Rate 125 g/ha, Postemergence, scale 0 to 10, 0 is no effect, 10 is complete control
[11] = Rate 62 g/ha, Postemergence, scale of 0 to 10 where 0 is no effect and 10 is complete control

SMILES: CCN(C(=O)n1oc(=O)n(C2CCCCCC2)c1=O)C1CCCCC1 [Compound 429]
- Barnyardgrass plant response rating (bamyardgrass; [1]): 1
- Barnyardgrass plant response rating (bamyardgrass; [2]): 7
- Barnyardgrass plant response rating (bamyardgrass; Rate 62 g/ha, Postemergence (flood test species), scale of 0 to 10 where 0 is no effect and 10 is complete control): 0
- Barnyardgrass plant response rating (bamyardgrass; [3]): 0
- Morningglory plant response rating (morningglory; [4]): 2
- Morningglory plant response rating (morningglory; [5]): 3
- Plant response rating, Morningglory (morningglory; [6]): 0
- Plant response rating, Morningglory (morningglory; [7]): 0
- Morningglory plant response rating (morningglory; [8]): 0
- Morningglory plant response rating (morningglory; [9]): 0
- Morningglory plant response rating (morningglory; [10]): 1
- Wheat plant response rating (wheat; [4]): 0
- Wheat plant response rating (wheat; [5]): 0
- Plant response rating, Wheat (wheat; [6]): 0
- Plant response rating, Wheat (wheat; [7]): 0
- Wheat plant response rating (wheat; [8]): 0
- Wheat plant response rating (wheat; [9]): 0
- Wheat plant response rating (wheat; [10]): 0
- Rice plant response rating (rice; [1]): 0
- Rice plant response rating (rice; [2]): 0
- Rice plant response rating (rice; [3]): 0
- Velvetleaf plant response rating (velvetleaf; [4]): 2
- Velvetleaf plant response rating (velvetleaf; [5]): 2
- Plant response rating, Velvetleaf (velvetleaf; [6]): 0
- Plant response rating, Velvetleaf (velvetleaf; [7]): 0
- Velvetleaf plant response rating (velvetleaf; [8]): 0
- Velvetleaf plant response rating (velvetleaf; [9]): 0
- Velvetleaf plant response rating (velvetleaf; [10]): 0
- Soybean plant response rating (soybean; [4]): 2
- Soybean plant response rating (soybean; [5]): 3
- Plant response rating, Soybean (soybean; [6]): 0
- Plant response rating, Soybean (soybean; [7]): 0
- Soybean plant response rating (soybean; [8]): 0
- Soybean plant response rating (soybean; [9]): 0
- Soybean plant response rating (soybean; [10]): 2
- S. Flatsedge plant response rating (smallflower flatsedge; [1]): 3
- S. Flatsedge plant response rating (smallflower flatsedge; [2]): 9
- S. Flatsedge plant response rating (smallflower flatsedge; [3]): 0
- Redroot pigweed plant response rating (pigweed; [4]): 0
- Redroot pigweed plant response rating (pigweed; [5]): 0
- Plant response rating, Redroot pigweed (pigweed; [6]): 0
- Plant response rating, Redroot pigweed (pigweed; [7]): 0
- Redroot pigweed plant response rating (pigweed; [8]): 0
- Redroot pigweed plant response rating (pigweed; [9]): 0
- Redroot pigweed plant response rating (pigweed; [10]): 0
- Cocklebur plant response rating (cocklebur; [4]): 0
- Cocklebur plant response rating (cocklebur; [5]): 0
- Plant response rating, Cocklebur (cocklebur; [6]): 0
- Plant response rating, Cocklebur (cocklebur; [7]): 0
- Cocklebur plant response rating (cocklebur; [8]): 0
- Cocklebur plant response rating (cocklebur; [9]): 0
- Cocklebur plant response rating (cocklebur; [11]): 0
- Cocklebur plant response rating (cocklebur; [10]): 0
- B. signalgrass plant response rating (surinam grass; Postemergence, Rate 250 g/ha, scale 0 to 10, 0 no effect, 10 complete control): 0
- B. signalgrass plant response rating (surinam grass; [5]): 0
- Plant response rating, B. signalgrass (surinam grass; [6]): 0
- Plant response rating, B. signalgrass (surinam grass; [7]): 0
- B. signalgrass plant response rating (surinam grass; [8]): 0
- B. signalgrass plant response rating (surinam grass; [9]): 4
- B. signalgrass plant response rating (surinam grass; [11]): 0
- B. signalgrass plant response rating (surinam grass; [10]): 0
- Nutsedge plant response rating (purple nutsedge; [4]): 0
- Nutsedge plant response rating (purple nutsedge; [5]): 0
- Plant response rating, Nutsedge (purple nutsedge; [6]): 0
- Plant response rating, Nutsedge (purple nutsedge; [7]): 0
- Nutsedge plant response rating (purple nutsedge; [8]): 0
- Nutsedge plant response rating (purple nutsedge; [9]): 0
- Nutsedge plant response rating (purple nutsedge; [10]): 0
- Crabgrass plant response rating (crabgrass; [4]): 2
- Crabgrass plant response rating (crabgrass; [5]): 3
- Plant response rating, Crabgrass (crabgrass; [6]): 7
- Plant response rating, Crabgrass (crabgrass; [7]): 10
- Crabgrass plant response rating (crabgrass; [8]): 10
- Crabgrass plant response rating (crabgrass; [9]): 10
- Crabgrass plant response rating (crabgrass; [11]): 0
- Crabgrass plant response rating (crabgrass; [10]): 1
- Giant foxtail plant response rating (giant foxtail; [4]): 2
- Giant foxtail plant response rating (giant foxtail; [5]): 4
- Plant response rating, Giant foxtail (giant foxtail; [6]): 3
- Plant response rating, Giant foxtail (giant foxtail; [7]): 10
- Giant foxtail plant response rating (giant foxtail; [8]): 10
- Giant foxtail plant response rating (giant foxtail; [9]): 10
- Giant foxtail plant response rating (giant foxtail; [11]): 0
- Giant foxtail plant response rating (giant foxtail; [10]): 1
- Blackgrass plant response rating (blackgrass; [4]): 3
- Blackgrass plant response rating (blackgrass; [5]): 3
- Plant response rating, Blackgrass (blackgrass; [6]): 0
- Plant response rating, Blackgrass (blackgrass; [7]): 0
- Blackgrass plant response rating (blackgrass; [8]): 0
- Blackgrass plant response rating (blackgrass; [9]): 3
- Blackgrass plant response rating (blackgrass; [11]): 0
- Blackgrass plant response rating (blackgrass; [10]): 2
- Wild oats plant response rating (wild oat; [4]): 0
- Wild oats plant response rating (wild oat; [5]): 0
- Plant response rating, Wild oats (wild oat; [6]): 0
- Plant response rating, Wild oats (wild oat; [7]): 0
- Wild oats plant response rating (wild oat; [8]): 0
- Wild oats plant response rating (wild oat; [9]): 0
- Wild oats plant response rating (wild oat; [10]): 0

— patent US6737383B1, “Herbicidal oxadiazolidines” (priority 1999, dated 2004)
